Measurements reported in patent US20240208953A1, “"Cyclopenta[c]pyrrol Negative Allosteric Modulators of NR2B"” (Novartis AG, priority 2021, published 2024).

What was measured:
P-glycoprotein (P-gp) = P-glycoprotein (P-gp) (Homo sapiens (Human), UniProt P08183); assay: MDCK-MDR1 permeability / efflux assay; format: in vitro ADME; settings: dog, MDCK-MDR1, pH 7.4, efflux ratio, read-out: MDCK-MDR1 ER
Protocol: Example 4. Experimental Measurement of Efflux with MDCK-MDR1 Protocol
Cell Culture. MDCK-MDR1 cells were cultured at 37° C. under a 5% CO2 atmosphere, at 95% relative humidity in DMEM containing 10% FBS, penicillin-streptomycin (100 μg/mL), and 2 mM Ala-Gln. Cells were passaged every 3-4 days. For assay purposes, cells were seeded at a density of approximately 265,000 cells/cm^2 of a 96-well Transwell plate (Corning Life Sciences, Acton, MA) and cultured in the same media noted above for a period of 4 days.
Assay. The determination of the apparent permeability (Papp) was performed in both the A→B (apical to basal) and B→A (basal to apical) directions where each compound was assayed in triplicate. The zwitterion bestatin, a poorly permeably compound, was used as marker of monolayer integrity. To initiate the assay, media was aspirated, and the cells and basal chambers were washed three times with Hank's Balanced Salt Solution (HBSS) containing 10 mM HEPES (pH 7.4). Compound test solutions were prepared in triplicate in HBSS containing 10 mM HEPES (pH 7.4) and 0.02% bovine serum albumin (BSA) to a final concentration of 10 μM and centrifuged for 2 min at 4000×g, then applied to the donor compartment at time zero. Additionally, at time zero, a 37° C. solution without test articles (HBSS+10 mM HEPES (pH 7.4) plus 0.02% BSA) was added to the receiver chamber of the Transwell plate. A time zero sample of the donor solution was also sampled for further analysis. The assay was conducted for a period of 120 min at 37° C. without shaking. At the time of assay termination, samples were taken from each donor compartment, and each acceptor compartment of the Transwell plate. To each of the 0 and 120 min samples was added an internal standard solution containing glyburide in water:acetonitrile, 50:50 (v:v). Concentration curves were prepared using a Labcyte Echo in the same matrix noted above. Samples and concentration curve samples were centrifuged for 10 min at 4000×g and subsequently analyzed by mass spectroscopy.
Mass Spectroscopy. Assay samples were loaded onto a RapidFire C4 cartridge by means of a RapidFire autosampler (Agilent, Santa Clara, CA). […] Mass spectroscopy was performed using an AB Sciex AP15500 (Sciex, Frammingham, MA) equipped with a turbo ion spray source. The analyte concentration was calculated from the chromatographic peak area ratio of analyte to internal standard (glibenclamide, m/z 494→169), using Multiquant software V3.0 (Sciex, Framingham, MA).
Calculations. Papp values were determined as
Percent recovery values were determined as:
where VA is the volume of the acceptor (mL), S is the surface area of the membrane, D0 is the donor solution concentration at t=0, D120 is the donor solution concentration at t=120, A120 is the acceptor solution concentration at t=120, and t=time (seconds).
The suitability of a compound for oral dosing and/or for use as a CNS therapeutic is usually conducted by MDCK-MDR1 permeability assay to investigate its drug efflux potential mediated by P-glycoprotein (P-gp). MDCK-MDR1 permeability has been used as a predictor of blood brain barrier permeability in terms of efflux ratio (ER).

NR2B = NR2B (Rattus norvegicus (Rat), UniProt Q00960); assay: NR2B rat cortical neuron calcium influx assay; format: cell-based; settings: rat cortical neurons, glutamate and glycine stimulated calcium influx
Source text: Example 1: NR2B Rat Cortical Neuron Calcium Influx Assay Protocol
Embryonic day 18 timed pregnant Sprague Dawley rats were euthanized according to Institutional Animal Care and Use Committee (IACUC) protocol. After cutting medially through the skin and exposing the uterus and embryos, fetuses were removed and placed in cold Hibernate medium. Each embryo's brain was extracted and cerebral cortices were isolated by removing the midbrain and meninges. The dissected cortices were then dissociated into the neurons using papain dissociation system (Worthington Biochemical Corporation) according the manufacturer's protocol.
Dissociated neurons were counted and plated into 384-well poly-D-lysine coated plates (Corning® BioCoat™) at a density of 20,000 cells/well in 30 μL of Neurobasal/B27 complete medium. Neurons were cultured at 37° C. for 2 days. On the assay day, medium was removed and cells were incubated with 20 μL/well of calcium dye (Calcium 6 Assay Kit, Molecular Devices) suspended in HBSS with 1.8 mM Ca^2+ (Ca-HBSS) according to the manufacturer's instruction.
Compounds of interest from 10 mM stock were serially diluted into 3× of desired concentrations in 1.8 mM Ca-HBSS, and 10 μL were added to the wells. Compound and the neurons were incubated at 37° C. for 2 hours in the dark.
On FDSS7000EX (Hamamatsu Photonics), a fluorescence measuring instrument, 10 μL of 4× ligand solution containing glutamate and glycine made in 1.8 mM Ca^2+-HBSS were added to each well. The fluorescent signals were collected before and after the addition of ligands for a total of 2 minutes. The data were converted to a ratio of the peak fluorescence to the fluorescence at the beginning of the measurement.
Each data point was measured in duplicates. Dose response curves were used to identify IC50 and maximal inhibition values. IC50 represents the concentration in μM of compound at which there is a half-maximal compound effect. Maximal inhibition of a compound is expressed as a percent of the highest inhibition of activity over a no compound control.

Sequence of P-glycoprotein (P-gp) (P08183 whole entry): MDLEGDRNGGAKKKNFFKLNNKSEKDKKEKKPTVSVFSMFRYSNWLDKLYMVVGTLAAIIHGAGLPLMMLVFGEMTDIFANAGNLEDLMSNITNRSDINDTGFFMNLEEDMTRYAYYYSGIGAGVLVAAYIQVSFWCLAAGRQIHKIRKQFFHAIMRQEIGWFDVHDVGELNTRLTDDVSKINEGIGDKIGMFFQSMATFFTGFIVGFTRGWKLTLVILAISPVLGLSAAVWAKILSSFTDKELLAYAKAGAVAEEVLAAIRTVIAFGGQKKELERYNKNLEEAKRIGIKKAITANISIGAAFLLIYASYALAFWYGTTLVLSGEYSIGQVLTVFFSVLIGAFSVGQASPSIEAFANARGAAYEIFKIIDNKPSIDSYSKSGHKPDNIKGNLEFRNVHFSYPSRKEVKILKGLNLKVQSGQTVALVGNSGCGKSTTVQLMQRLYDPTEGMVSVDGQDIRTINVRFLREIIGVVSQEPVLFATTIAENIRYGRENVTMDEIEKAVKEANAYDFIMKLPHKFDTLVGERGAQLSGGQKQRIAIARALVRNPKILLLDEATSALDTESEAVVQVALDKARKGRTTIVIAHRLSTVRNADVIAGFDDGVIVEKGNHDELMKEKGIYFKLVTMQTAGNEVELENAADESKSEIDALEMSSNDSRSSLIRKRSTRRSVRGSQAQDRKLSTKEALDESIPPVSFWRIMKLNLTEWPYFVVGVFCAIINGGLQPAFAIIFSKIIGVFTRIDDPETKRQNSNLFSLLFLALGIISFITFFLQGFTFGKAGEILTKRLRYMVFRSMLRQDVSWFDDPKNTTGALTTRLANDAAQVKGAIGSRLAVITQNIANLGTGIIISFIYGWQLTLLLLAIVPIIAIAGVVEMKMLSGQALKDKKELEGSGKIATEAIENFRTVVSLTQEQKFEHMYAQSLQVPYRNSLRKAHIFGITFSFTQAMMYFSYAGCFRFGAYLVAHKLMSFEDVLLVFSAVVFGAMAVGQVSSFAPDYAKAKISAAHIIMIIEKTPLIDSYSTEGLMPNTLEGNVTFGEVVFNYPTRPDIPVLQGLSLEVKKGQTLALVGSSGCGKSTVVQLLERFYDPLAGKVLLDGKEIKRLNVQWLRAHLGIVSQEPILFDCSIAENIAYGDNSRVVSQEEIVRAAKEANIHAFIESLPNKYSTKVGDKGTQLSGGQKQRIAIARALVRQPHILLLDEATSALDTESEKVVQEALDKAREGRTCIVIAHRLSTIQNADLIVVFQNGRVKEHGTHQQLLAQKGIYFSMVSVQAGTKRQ
Sequence of NR2B (Q00960 27-1482, other chains not shown): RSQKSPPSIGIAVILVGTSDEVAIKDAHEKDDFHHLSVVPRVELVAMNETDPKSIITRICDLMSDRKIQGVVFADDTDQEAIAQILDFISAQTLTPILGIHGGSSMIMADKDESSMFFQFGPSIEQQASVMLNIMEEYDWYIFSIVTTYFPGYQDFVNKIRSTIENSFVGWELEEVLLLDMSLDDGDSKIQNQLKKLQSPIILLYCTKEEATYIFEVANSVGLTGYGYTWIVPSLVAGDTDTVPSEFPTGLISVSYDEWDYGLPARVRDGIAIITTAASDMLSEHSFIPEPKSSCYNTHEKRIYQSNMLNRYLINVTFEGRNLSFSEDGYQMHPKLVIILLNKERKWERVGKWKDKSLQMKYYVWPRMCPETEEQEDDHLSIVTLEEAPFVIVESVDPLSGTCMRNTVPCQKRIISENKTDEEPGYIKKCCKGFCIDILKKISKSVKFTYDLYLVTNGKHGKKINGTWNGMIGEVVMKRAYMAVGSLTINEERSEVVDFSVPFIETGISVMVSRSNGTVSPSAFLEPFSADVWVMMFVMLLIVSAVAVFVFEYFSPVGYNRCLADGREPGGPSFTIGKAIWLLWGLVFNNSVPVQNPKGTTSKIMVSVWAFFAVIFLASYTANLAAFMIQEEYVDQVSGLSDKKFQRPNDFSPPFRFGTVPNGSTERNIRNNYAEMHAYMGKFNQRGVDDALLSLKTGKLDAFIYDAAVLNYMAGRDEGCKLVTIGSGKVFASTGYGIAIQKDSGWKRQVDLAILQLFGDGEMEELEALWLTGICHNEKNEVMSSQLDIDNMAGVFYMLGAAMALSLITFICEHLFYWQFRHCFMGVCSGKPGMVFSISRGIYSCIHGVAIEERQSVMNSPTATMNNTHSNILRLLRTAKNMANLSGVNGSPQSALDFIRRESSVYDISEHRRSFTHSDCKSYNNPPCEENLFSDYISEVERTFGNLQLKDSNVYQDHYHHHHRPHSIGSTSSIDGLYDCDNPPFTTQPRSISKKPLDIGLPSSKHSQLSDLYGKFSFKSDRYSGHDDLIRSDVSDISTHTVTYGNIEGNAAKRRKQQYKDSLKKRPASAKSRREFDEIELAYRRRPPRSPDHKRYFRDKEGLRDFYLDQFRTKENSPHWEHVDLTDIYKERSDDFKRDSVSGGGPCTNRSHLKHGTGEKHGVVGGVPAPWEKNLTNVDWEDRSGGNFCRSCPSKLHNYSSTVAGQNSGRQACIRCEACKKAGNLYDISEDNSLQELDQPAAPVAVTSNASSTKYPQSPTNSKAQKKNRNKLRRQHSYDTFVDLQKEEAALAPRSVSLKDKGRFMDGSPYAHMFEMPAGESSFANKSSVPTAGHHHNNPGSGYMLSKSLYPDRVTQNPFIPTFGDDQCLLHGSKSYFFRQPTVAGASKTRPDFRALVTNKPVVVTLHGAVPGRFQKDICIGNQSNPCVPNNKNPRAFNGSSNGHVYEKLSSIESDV

efflux ratio at 120 min, 10 μM (P-glycoprotein (P-gp))	IC50 (NR2B)	Compound
1.01	520 nM	O=C1CCc2cc([C@@H](O)CN3C[C@H]4C[C@H](Oc5ccccc5F)C[C@@]4(O)C3)cc(F)c2N1 (single isomer, unassigned) [Example 6A]
2.73	14 nM	O=C1CCCc2cc([C@@H](O)CN3C[C@H]4C[C@H](Oc5ccccc5)C[C@@]4(O)C3)ccc2N1 (single isomer, unassigned) [Example 7A]
3.46	0.57 nM	O=c1ccc2cc([C@H](O)CN3C[C@H]4C[C@H](Oc5ccccc5)C[C@@]4(O)C3)ccc2[nH]1 (single isomer, unassigned) [Example 8B]
2.49	0.56 nM	O=C1CCc2cc([C@H](O)CN3C[C@H]4C[C@H](Oc5ccccc5)C[C@@]4(O)C3)c(F)cc2N1 (single isomer, unassigned) [Example 10B]
1.74	1.9 nM	CC1(C)Cc2cc([C@@H](O)CN3C[C@H]4C[C@H](Oc5ccccc5)C[C@@]4(O)C3)ccc2NC1=O (single isomer, unassigned) [Example 11A]
1.22	86 nM	O=C1COc2cc([C@@H](O)CN3C[C@H]4C[C@H](Oc5ccccc5)C[C@@]4(O)C3)cc(F)c2N1 (single isomer, unassigned) [Example 13A]
1.6	0.0015 nM	O=C1Nc2ccc([C@@H](O)CN3C[C@H]4C[C@H](Oc5ccccc5F)C[C@@]4(O)C3)cc2CS1 (single isomer, unassigned) [Example 15A]
1.92	0.0019 nM	O=C1Nc2ccc([C@H](O)CN3C[C@H]4C[C@H](Oc5ccccc5F)C[C@@]4(O)C3)cc2CS1 (single isomer, unassigned) [Example 15B]
1.61	< 0.0021 nM	O=c1[nH]c2ccc([C@@H](O)CN3C[C@H]4C[C@H](Oc5ccccc5F)C[C@@]4(O)C3)cc2s1 (single isomer, unassigned) [Example 18A]
1.43	1.4 nM	O=C1CCc2cc([C@@H](O)CN3C[C@@H]4C[C@@H](Oc5ccc(F)cc5)C[C@]4(O)C3)ccc2N1 (single isomer, unassigned) [Example 22C]
3.75	1.4 nM	O=C1CCc2cc([C@@H](O)CN3C[C@@H]4C[C@@H](Oc5cccc(F)c5)C[C@]4(O)C3)ccc2N1 (single isomer, unassigned) [Example 23C]
2.52	1.9 nM	O=C1CCc2cc([C@H](O)CN3C[C@@H]4C[C@@H](Oc5cc(F)ccc5F)C[C@]4(O)C3)ccc2N1 (single isomer, unassigned) [Example 26D]
2.05	1.4 nM	O=C1CCc2cc([C@H](O)CN3C[C@@H]4C[C@@H](Oc5c(F)cccc5F)C[C@]4(O)C3)ccc2N1 (single isomer, unassigned) [Example 27D]

The remaining lines, values behind:

Compound	efflux ratio at 120 min, 10 μM (P-glycoprotein (P-gp))	IC50 (NR2B)
O=C1Cc2cc([C@@H](O)CN3C[C@H]4C[C@H](Oc5ccccc5)C[C@@]4(O)C3)ccc2N1 (single isomer, unassigned) [Example 2A]	3.3	100 nM
O=C1CCc2cc([C@H](O)CN3C[C@@H]4C[C@@H](Oc5ccccc5F)C[C@]4(O)C3)cc(F)c2N1 (single isomer, unassigned) [Example 6D]	1.29	2.4 nM
O=C1CCc2c(ccc([C@@H](O)CN3C[C@H]4C[C@H](Oc5ccccc5)C[C@@]4(O)C3)c2F)N1 (single isomer, unassigned) [Example 9A]	1.06	2.7 nM
O=C1CCc2c(ccc([C@H](O)CN3C[C@H]4C[C@H](Oc5ccccc5)C[C@@]4(O)C3)c2F)N1 (single isomer, unassigned) [Example 9B]	1.4	4.1 nM
O=C1Nc2ccc([C@@H](O)CN3C[C@H]4C[C@H](Oc5ccccc5F)C[C@@]4(O)C3)cc2CCO1 (single isomer, unassigned) [Example 12A]	2.81	0.3 nM
O=C1COc2cc([C@H](O)CN3C[C@H]4C[C@H](Oc5ccccc5)C[C@@]4(O)C3)cc(F)c2N1 (single isomer, unassigned) [Example 13B]	1.11	57 nM
O=C1Nc2ccc([C@@H](O)CN3C[C@H]4C[C@H](Oc5ccccc5)C[C@@]4(O)C3)cc2CS1 (single isomer, unassigned) [Example 14A]	1.51	0.011 nM
O=c1[nH]c2ccc([C@H](O)CN3C[C@H]4C[C@H](Oc5ccccc5)C[C@@]4(O)C3)cc2s1 (single isomer, unassigned) [Example 17B]	2.06	0.049 nM
O=c1[nH]c2c(F)cc([C@H](O)CN3C[C@H]4C[C@H](Oc5ccccc5)C[C@@]4(O)C3)cc2cc1F (single isomer, unassigned) [Example 20B]	3.32	0.33 nM
O=C1CCc2cc([C@H](O)CN3C[C@@H]4C[C@@H](Oc5cccc(F)c5)C[C@]4(O)C3)ccc2N1 (single isomer, unassigned) [Example 23D]	3.28	1.3 nM
O=C1CCc2cc([C@H](O)CN3C[C@@H]4C[C@@H](Oc5cccc(F)c5F)C[C@]4(O)C3)ccc2N1 (single isomer, unassigned) [Example 24D]	2.64	0.056 nM
O=C1CCc2cc([C@@H](O)CN3C[C@@H]4C[C@@H](Oc5ccc(F)cc5F)C[C@]4(O)C3)ccc2N1 (single isomer, unassigned) [Example 25C]	2.74	0.24 nM
O=C1CCc2cc([C@@H](O)CN3C[C@@H]4C[C@@H](Oc5cc(F)ccc5F)C[C@]4(O)C3)ccc2N1 (single isomer, unassigned) [Example 26C]	3.27	1.3 nM
O=C1CCc2cc([C@@H](O)CN3C[C@@H]4C[C@@H](Oc5c(F)cccc5F)C[C@]4(O)C3)ccc2N1 (single isomer, unassigned) [Example 27C]	1.52	1.7 nM
O=C1Nc2ccc([C@H](O)CN3C[C@H]4C[C@H](Oc5ccccc5)C[C@@]4(O)C3)cc2CO1 (single isomer, unassigned) [Example 28B]	3.18	1.7 nM
O=C1CCc2cc([C@@H](O)CN3C[C@H]4C[C@H](Oc5ccccc5F)[C@H](O)[C@@]4(O)C3)cc(F)c2N1 (single isomer, unassigned) [Example 29A]	3.23	130 nM
